Laboratory results taken from patent US8163705B2, “Glycolipid and use thereof” (Riken, priority 2006, dated 2012).

Legend:
[1] = system: Splenocytes taken out from a mouse spleen; assay: Experimental Example 2: cytokine (IFN-γ, IL-4) production by mouse splenocytes, sandwich ELISA of culture supernatant; format: cell-based; conditions: reagent 20 ng/mL, 48 hours, FIG. 2; for IFN-γ production amount and IL-4 production amount (cytokine production pattern): mouse splenocytes 2×10^5 cells/well, culture supernatant; for IL-4-predominant cytokine production compared with compound b (OCH): mouse splenocytes
Protocol: Splenocytes taken out from a mouse spleen were prepared using an RPMI1640 culture broth (produced by Sigma) containing 10% Fetal calf serum (FCS) at 2×10^5 cells/well (96-well plate). A reagent was added to this culture broth at a concentration of 20 ng/mL; 2 days later (48 hours later), the cytokine content in the culture supernatant was measured by a sandwich ELISA technique. The test substances used were compound 11, compound 12, compound 13 and compound 48 as obtained in Examples 1 to 3 and Reference Example, with compound a and a compound represented by the following formula (b) (OCH, hereinafter referred to as compound b) used as the comparators.
(§1) These findings confirm that the compounds of the present invention are effective as therapeutic drugs for pathologic conditions that can be ameliorated by IL-4.

[2] = system: Splenocytes from a mouse spleen; assay: Experimental Example 1: cytokine (IFN-γ, IL-4) production by mouse splenocytes, sandwich ELISA of culture supernatant; format: cell-based; conditions: mouse splenocytes 2×10^5 cells/well, reagent 40 ng/mL, 72 hours, FIG. 1
Protocol: Splenocytes from a mouse spleen were prepared using an RPMI1640 culture broth (produced by Sigma) containing 10% Fetal calf serum (FCS) at 2×10^5 cells/well (96-well plate). A reagent was added to this culture broth at a concentration of 40 ng/mL; 3 days later (72 hours later), the cytokine content in the culture supernatant was measured by a sandwich ELISA technique. The test substances used were compound 11, compound 12 and compound 13 as obtained in Examples 1 to 3, with a compound represented by the following formula (a) (α-GalCer, hereinafter referred to as “compound a”) used as the comparator.
as §1

[3] = system: Splenocytes taken out from a mouse spleen; conditions: stated as known; cited from earlier work

CCCCCCCCCCCCCCCCS(=O)(=O)N[C@@H](CO[C@H]1O[C@H](CO)[C@H](O)[C@H](O)[C@H]1O)[C@H](O)[C@H](O)CCCCCCCCCCCCCC [compound 48, (2S,3S,4R)-1-(α-D-galactopyranosyloxy)-2-(hexadecanesulfonylamino)-3,4-octadecanediol]
IFN-γ production amount and IL-4 production amount (cytokine production pattern) [1]: IL-4-predominant cytokine production pattern with smaller amounts of IFN-γ produced | IL-4-predominant cytokine production compared with compound b (OCH) [1]: capable of inducing IL-4-predominant cytokine production to higher extents than compound b

CCCCCCCCCCCCCCCCCCCCCCCCCC(=O)N[C@@H](COC1OC(CO)C(O)C(O)C1O)[C@H](O)[C@H](O)CCCCCCCCCCCCCC (some centres unmarked) [compound a, reference compound]
IFN-γ production amount and IL-4 production amount (cytokine production pattern) [1]: produced both IFN-γ and IL-4 in large amounts | IFN-γ production amount and IL-4 production amount (cytokine production pattern) [2]: produced both IFN-γ and IL-4 in large amounts

CCCCCCCCCCCCCC[C@@H](O)[C@@H](O)[C@H](CO[C@H]1O[C@H](CO)[C@H](O)[C@H](O)[C@H]1O)NS(=O)(=O)c1ccccc1C [compound 12, (2S,3S,4R)-1-(α-D-galactopyranosyloxy)-2-(o-toluenesulfonylamino)-3,4-octadecanediol]
IFN-γ production amount and IL-4 production amount (cytokine production pattern) [1]: IL-4-predominant cytokine production pattern with smaller amounts of IFN-γ produced | IL-4-predominant cytokine production compared with compound b (OCH) [1]: capable of inducing IL-4-predominant cytokine production to higher extents than compound b | IFN-γ production amount and IL-4 production amount (cytokine production pattern) [2]: IL-4-predominant cytokine production pattern

CCCCCCCCCCCCCC[C@@H](O)[C@@H](O)[C@H](CO[C@H]1O[C@H](CO)[C@H](O)[C@H](O)[C@H]1O)NS(=O)(=O)c1cccc(C)c1 [compound 13, (2S,3S,4R)-1-(α-D-galactopyranosyloxy)-2-(m-toluenesulfonylamino)-3,4-octadecanediol]
IFN-γ production amount and IL-4 production amount (cytokine production pattern) [1]: IL-4-predominant cytokine production pattern with smaller amounts of IFN-γ produced | IL-4-predominant cytokine production compared with compound b (OCH) [1]: capable of inducing IL-4-predominant cytokine production to higher extents than compound b | IFN-γ production amount and IL-4 production amount (cytokine production pattern) [2]: IL-4-predominant cytokine production pattern

CCCCCCCCCCCCCCCCCCCCCCCC(=O)N[C@@H](COC1OC(CO)C(O)C(O)C1O)[C@H](O)[C@H](O)CCCCC (some centres unmarked) [compound b]
cytokine production pattern as known for the comparator [3]: induces IL-4-predominant cytokine production

CCCCCCCCCCCCCC[C@@H](O)[C@@H](O)[C@H](CO[C@H]1O[C@H](CO)[C@H](O)[C@H](O)[C@H]1O)NS(=O)(=O)c1ccc(C)cc1 [compound 11, (2S,3S,4R)-1-(α-D-galactopyranosyloxy)-2-(p-toluenesulfonylamino)-3,4-octadecanediol]
IFN-γ production amount and IL-4 production amount (cytokine production pattern) [1]: IL-4-predominant cytokine production pattern with smaller amounts of IFN-γ produced | IL-4-predominant cytokine production compared with compound b (OCH) [1]: capable of inducing IL-4-predominant cytokine production to higher extents than compound b | IFN-γ production amount and IL-4 production amount (cytokine production pattern) [2]: IL-4-predominant cytokine production pattern
